Laboratory results: patent US8809333B2, “Imidazole, pyrazole, and triazole derivatives useful as antibacterial agents” (Pfizer Inc., priority 2011, dated 2014)
Values after ≈ are worked out from the molar mass of the structure shown. Where two headings read alike, the source gives them in different places.

Legend:
[1] = biological target: T1, Pseudomonas aeruginosa LpxC enzyme (Pseudomonas aeruginosa, UniProt P47205); assay: IC50 assay, LpxC enzyme from P. aeruginosa (BioTrove RapidFire mass spectrometry); format: biochemical
T1 construct: made in house; host or cells: E. coli
T1 sequence (P47205 1-303): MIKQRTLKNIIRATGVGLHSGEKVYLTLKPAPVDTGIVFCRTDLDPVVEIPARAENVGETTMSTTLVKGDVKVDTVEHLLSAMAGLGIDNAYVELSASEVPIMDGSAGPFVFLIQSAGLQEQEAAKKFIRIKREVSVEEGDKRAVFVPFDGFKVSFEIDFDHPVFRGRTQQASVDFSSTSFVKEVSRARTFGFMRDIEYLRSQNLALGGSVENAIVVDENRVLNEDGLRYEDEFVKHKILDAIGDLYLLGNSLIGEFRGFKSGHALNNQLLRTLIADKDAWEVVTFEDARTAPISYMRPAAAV
Description: In order to assess the compounds biological activity, selected in-vitro assays were conducted on selected compounds of Formula I. One of the assays measured the compounds ability to disrupt the synthesis of lipopolysaccharide, LPS, which is a component of the outer membrane of Gram-negative bacteria. Disruption of this synthesis is lethal to the bacteria. The assay determined the compound's ability to inhibit LpxC, which is the first enzyme in the biosynthetic pathway for LPS (measured as IC50). Additionally, MICs (minimal inhibitory concentrations) were determined for several bacteria. The specific protocols are described below:
A) IC50 Assay, LpxC Enzyme from P. Aeruginosa Labeled as PA LpxC Enzyme IC50):
At the end of 1 hour, 5 ul of 1 N HCl was added to stop the enzyme reaction, the plates were centrifuged, and then processed with the BioTrove Rapidfire HTMS Mass Spectrometry System. A no-enzyme control was used in calculating the IC50 values from the percent conversion values.

[2] = test system: Acinetobacter baumannii/haemolyticus: Multidrug-resistant clinical isolate (AB-3167); assay: MIC determination (CLSI), AB-3167; format: cell-based; settings: Acinetobacter baumannii/haemolyticus multidrug-resistant clinical isolate, overnight incubation, lower of duplicate values; for MIC: read-out: AB-3167 (MIC)
Description: (§1) The in vitro antibacterial activity of compounds described in the Examples was evaluated by minimum inhibitory concentration (MIC) testing according to Clinical and Laboratory Standards Institute (CLSI) Guidelines. See: Clinical and Laboratory Standards Institute. Methods for Dilution Antimicrobial Susceptibility Tests for Bacteria that Grow Aerobically; Approved Standard-Eighth Edition. CLSI document M7-A8 [ISBN 1-56238-689-1]. Clinical and Laboratory Standards Institute, 940 West Valley Road, Suite 1400, Wayne, Pa. 19087-1898 USA, 2006; also Clinical and Laboratory Standards Institute. Performance Standards for Antimicrobial Susceptibility Testing; Twentieth Informational Supplement. CLSI document M100-S20 [ISBN1-56238-716-2]. Clinical and Laboratory Standards Institute.
(§2) The MIC determination is a standard laboratory method for evaluating the antibacterial activity of a compound. The MIC represents the lowest drug concentration that inhibits visible growth of bacteria following overnight incubation. […] Typically, the drug concentration range is broken down into 2-fold increments (e.g. 0.06 μg/mL, 0.12 μg/mL. 0.25 μg/mL, 0.50 μg/mL, 1.0 μg/mL, etc.) and the various drug concentrations are all individually incubated overnight with approximately the same number of bacteria. The MIC is then determined by visually inspecting the drug effect at each concentration, and identifying the lowest drug concentration that has inhibited bacterial growth as compared to the drug free control. Typically, bacteria continue to grow at drug concentrations lower than the MIC and don't grow at concentrations at and above the MIC.
(§3) The MIC values described in Tables 2 and 3 below were derived from assays wherein each test compound was evaluated in duplicate. In cases where the duplicate values varied by 0-2-fold, the lower of the two values was reported below. Generally speaking, if the duplicate values varied by more than 2-fold, the assay was considered non-valid and was repeated until the variation between duplicate runs was ≦2-fold. In line with the CLSI guidelines referred to above, both control organisms and reference compounds were utilized in each MIC assay to provide proper quality control. MIC values generated with these control organisms and reference compounds were required to fall within a defined range for the assay to be considered valid and be included herein. Those skilled in the art will recognize that MIC values can and do vary from experiment to experiment. Generally speaking, it should be recognized that MIC values often vary +/−2-fold from experiment to experiment. While a single MIC is reported for each compound and each microorganism, the reader should not conclude that each compound was only tested once. Several of the compounds were subjected to multiple tests. The data reported in Tables 2 and 3 is reflective of the compounds relative activity and different MICs may have been generated on these occasions in line with the guidelines described above.
(§4) The following bacterial strains were used in these MIC determinations:
(1) Acinetobacter baumannii/haemolyticus: Multidrug-resistant clinical isolate labeled as AB-3167 in Table 5;

[3] = test system: Escherichia coli EC-1: VOGEL, mouse virulent; assay: MIC determination (CLSI), EC-1; format: cell-based; settings: for MIC: Escherichia coli, read-out: EC-1 (MIC)
Description: as §1, §2, §3, §4
(2) Escherichia coli EC-1: VOGEL, mouse virulent labeled as EC-1 in Table 5;

[4] = test system: Klebsiella pneumoniae: Ciprofloxacin-resistant isolate, expresses ESBL, clinical isolate (KP-3700); assay: MIC determination (CLSI), KP-3700; format: cell-based; settings: overnight incubation, lower of duplicate values
Description: as §1, §2, §3, §4
(3) Klebsiella pneumoniae: Ciprofloxacin-resistant isolate, expresses extended-spectrum beta-lactamases (ESBL), clinical isolate, labeled as KP-3700 in Table 5.

[5] = test system: Pseudomonas aeruginosa UI-18: Wild-type (PA-7); assay: MIC determination (CLSI), PA-7; format: cell-based; settings: Pseudomonas aeruginosa UI-18 wild-type, overnight incubation, lower of duplicate values; for MIC: read-out: PA-7 (MIC)
Description: as §1, §2, §3, §4
(4) Pseudomonas aeruginosa UI-18: Wild-type, labeled as PA-7 in Table 5;

[6] = P. aeruginosa LpxC enzyme 0.1 nM, 25° C., 1 hour, pH 8.0, read-out: PA: IC50

`C[C@@](CCn1cc(C2CCCCC2)cn1)(C(=O)NO)S(C)(=O)=O` [Example 2, (2R)-4-(4-cyclohexyl-1H-pyrazol-1-yl)-N-hydroxy-2-methyl-2-(methylsulfonyl)butanamide] showed an IC50 [1, 6] of 0.752 nM, an MIC [2] of over 64 µg/mL and an MIC [3] of 32 µg/mL (≈ 93.2 µM). The “KP-3700 (MIC)” value [4] was 64 µg/mL and the MIC [5] was 1 µg/mL (≈ 2.91 µM).

“(2R)-4-[4-(2-fluoro-4-methoxyphenyl)-1H-1,2,3-triazol-1-yl]-N-hydroxy-2-methyl-2-(methylsulfonyl)butanamide [Example 22]” was tested, and the IC50 [1, 6] was 1.2 nM, the “AB-3167 (MIC)” value [2] was over 64.0 µg/mL and the “EC-1 (MIC)” value ([3]; Escherichia coli EC-1 VOGEL, mouse virulent, overnight incubation, lower of duplicate values) was 4 µg/mL. For the same molecule, the “KP-3700 (MIC)” value [4] was 32 µg/mL and the “PA-7 (MIC)” value [5] was 2 µg/mL.

`C[C@@](CCn1cc(-c2ccccc2)nn1)(C(=O)NO)S(C)(=O)=O` [Example 14, (2R)—N-hydroxy-2-methyl-2-(methylsulfonyl)-4-(4-phenyl-1H-1,2,3-triazol-1-yl)butanamide] showed an IC50 [1] of 0.85 nM, an MIC [2] of over 64 µg/mL and an MIC [3] of 32 µg/mL (≈ 94.6 µM). The “KP-3700 (MIC)” value [4] was 32 µg/mL and the MIC [5] was 2 µg/mL (≈ 5.91 µM).

In the case of `C[C@@](CCn1cc(-c2ccc(F)c(F)c2)nn1)(C(=O)NO)S(C)(=O)=O` [Example 20, (2R)-4-[4-(3,4-difluorophenyl)-1H-1,2,3-triazol-1-yl]-N-hydroxy-2-methyl-2-(methylsulfonyl)butanamide], the IC50 [1] is reported as 1.87 nM, the MIC [2] is reported as over 64 µg/mL and the MIC [3] is reported as 32 µg/mL (≈ 85.5 µM). For the same molecule, the “KP-3700 (MIC)” value [4] was over 64.0 µg/mL and the MIC [5] was 4 µg/mL (≈ 10.7 µM).

With `CC(CCn1cc(-c2cccc(C#N)c2)cn1)(C(=O)NO)S(C)(=O)=O` (centres unmarked) [Example 48, 4-[4-(3-cyanophenyl)-1H-pyrazol-1-yl]-N-hydroxy-2-methyl-2-(methylsulfonyl)butanamide] the IC50 [1, 6] was 29.3 nM, the MIC [2] was over 64 µg/mL and the MIC [3] was over 64 µg/mL. The “KP-3700 (MIC)” value [4] was over 64.0 µg/mL and the MIC [5] was 64 µg/mL (≈ 177 µM).

With `CC(CCn1cc(-c2ccc3cc[nH]c3n2)cn1)(C(=O)NO)S(C)(=O)=O` (centres unmarked) [Example 57, N-hydroxy-2-methyl-2-(methylsulfonyl)-4-[4-(1H-pyrrolo[2,3-b]pyridin-6-yl)-1H-pyrazol-1-yl]butanamide] the IC50 [1, 6] was 3.72 nM, the MIC [2] was over 64 µg/mL and the MIC [3] was over 64 µg/mL. The “KP-3700 (MIC)” value [4] was over 64.0 µg/mL and the MIC [5] was 64 µg/mL (≈ 170 µM).

Molecule `CC(CCn1cc(-c2ccc(C(F)(F)F)nc2)cn1)(C(=O)NO)S(C)(=O)=O` (centres unmarked) [Example 77, N-hydroxy-2-methyl-2-(methylsulfonyl)-4-{4-[6-(trifluoromethyl)pyridin-3-yl]-1H-pyrazol-1-yl}butanamide] has an IC50 [1, 6] of 19.5 nM, an MIC [2] of over 64 µg/mL and an MIC [3] of over 64 µg/mL. The “KP-3700 (MIC)” value [4] was over 64.0 µg/mL and the MIC [5] was 64 µg/mL (≈ 157 µM).

`C[C@@](CCn1cc(-c2cccc(F)c2F)nn1)(C(=O)NO)S(C)(=O)=O` [Example 17, (2R)-4-[4-(2,3-difluorophenyl)-1H-1,2,3-triazol-1-yl]-N-hydroxy-2-methyl-2-(methylsulfonyl)butanamide] gave an IC50 [1] of 8.08 nM, an MIC [2] of over 64 µg/mL and an MIC [3] of 32 µg/mL (≈ 85.5 µM). For the same molecule, the “KP-3700 (MIC)” value [4] was 64 µg/mL and the MIC [5] was 4 µg/mL (≈ 10.7 µM).

For `CC(CCn1cc(-c2cccc(OC(F)F)c2)cn1)(C(=O)NO)S(C)(=O)=O` (centres unmarked) [Example 68, 4-{4-[3-(difluoromethoxy)phenyl]-1H-pyrazol-1-yl}-N-hydroxy-2-methyl-2-(methylsulfonyl)butanamide], the IC50 [1, 6] was 2.1 nM, the MIC [2] was over 64 µg/mL and the MIC [3] was 64 µg/mL (≈ 159 µM). The “KP-3700 (MIC)” value [4] was over 64.0 µg/mL and the MIC [5] was 8 µg/mL (≈ 19.8 µM).

`CC(CCn1cc(-c2cccc(-c3cc(N)[nH]n3)c2)cn1)(C(=O)NO)S(C)(=O)=O` (centres unmarked) [Example 85, 4-{4-[3-(5-amino-1H-pyrazol-3-yl)phenyl]-1H-pyrazol-1-yl}-N-hydroxy-2-methyl-2-(methylsulfonyl)butanamide] gave an IC50 [1, 6] of 58.9 nM, an MIC [2] of over 64 µg/mL and an MIC [3] of over 64 µg/mL. For the same molecule, the “KP-3700 (MIC)” value [4] was over 64.0 µg/mL and the MIC [5] was over 64 µg/mL.

In the case of `CC(CCn1cc(CSc2cccc(Cl)c2)nn1)(C(=O)NO)S(C)(=O)=O` (centres unmarked) [Example 27, 4-(4-{[(3-chlorophenyl)sulfanyl]methyl}-1H-1,2,3-triazol-1-yl)-N-hydroxy-2-methyl-2-(methylsulfonyl)butanamide], the IC50 [1, 6] is reported as 12.2 nM, the MIC [2] is reported as over 64 µg/mL and the MIC [3] is reported as over 64 µg/mL. For the same molecule, the “KP-3700 (MIC)” value [4] was over 64.0 µg/mL and the MIC [5] was 64 µg/mL (≈ 153 µM).

`CC(CCn1cc(-c2ccc(F)cc2F)cn1)(C(=O)NO)S(C)(=O)=O` (centres unmarked) [Example 55, 4-[4-(2,4-difluorophenyl)-1H-pyrazol-1-yl]-N-hydroxy-2-methyl-2-(methylsulfonyl)butanamide] was tested, and the IC50 [1, 6] was 2.07 nM, the MIC [2] was over 64 µg/mL and the MIC [3] was 8 µg/mL (≈ 21.4 µM). The “KP-3700 (MIC)” value [4] was 64 µg/mL and the MIC [5] was 2 µg/mL (≈ 5.36 µM).

For `CC(C)(C)c1ccccc1SCc1cn(CCC(C)(C(=O)NO)S(C)(=O)=O)nn1` (centres unmarked) [Example 28, 4-(4-{[(2-t-butylphenyl)sulfanyl]methyl}-1H-1,2,3-triazol-1-yl)-N-hydroxy-2-methyl-2-(methylsulfonyl)butanamide], the IC50 [1, 6] was 174 nM, the MIC [2] was over 64 µg/mL and the MIC [3] was over 64 µg/mL. The “KP-3700 (MIC)” value [4] was over 64.0 µg/mL and the MIC [5] was over 64 µg/mL.

Molecule `Cc1ccc(-c2cn(CCC(C)(C(=O)NO)S(C)(=O)=O)nn2)cc1` (centres unmarked) [Example 37, N-hydroxy-2-methyl-4-[4-(4-methylphenyl)-1H-1,2,3-triazol-1-yl]-2-(methylsulfonyl)butanamide] has an IC50 [1] of 1.39 nM, an MIC [2] of over 64 µg/mL and an MIC [3] of 16 µg/mL (≈ 45.4 µM). For the same molecule, the “KP-3700 (MIC)” value [4] was 64 µg/mL and the MIC [5] was 4 µg/mL (≈ 11.4 µM).

In the case of `Cc1cc(O)ccc1-c1cnn(CCC(C)(C(=O)NO)S(C)(=O)=O)c1` (centres unmarked) [Example 49, N-hydroxy-4-[4-(4-hydroxy-2-methylphenyl)-1H-pyrazol-1-yl]-2-methyl-2-(methylsulfonyl)butanamide], the IC50 [1, 6] is reported as 90.4 nM, the MIC [2] is reported as over 64 µg/mL and the MIC [3] is reported as over 64 µg/mL. For the same molecule, the “KP-3700 (MIC)” value [4] was over 64.0 µg/mL and the MIC [5] was over 64 µg/mL.

Work on `Cc1ccc(-c2cnn(CCC(C)(C(=O)NO)S(C)(=O)=O)c2)cc1` (centres unmarked) [Example 41, N-hydroxy-2-methyl-4-[4-(4-methylphenyl)-1H-pyrazol-1-yl]-2-(methylsulfonyl)butanamide] yielded an IC50 [1, 6] of 1.26 nM, an MIC [2] of over 64 µg/mL and an MIC [3] of 8 µg/mL (≈ 22.8 µM). For the same molecule, the “KP-3700 (MIC)” value [4] was 64 µg/mL and the MIC [5] was 2 µg/mL (≈ 5.69 µM).
